Laboratory results reported in patent publication US20040220268A1, “Compound that directly stimulates phospholipase C activity” (priority 2003, published 2004).

How the values were obtained:
[1] = test system: human neutrophils; experiment: [Ca2+]i measurement with fura-2 in neutrophils; format: cell-based; settings: for effect on calcium signal induced by m-3M3FBS: pretreatment with 4 μM, m-3M3FBS 25 μM
Method: Fura-2-loaded neutrophils were stimulated with m-3M3FBS or o-3M3FBS at 25 μM in extracellular calcium containing 2 mM or extracellular free calcium conditions. The results shown are representative of three independent experiments (A). Prepared neutrophils were loaded with fura-2 and then stimulated with 25 μM of m-3M3FBS in the absence or in the presence of 4 μM of U-73122 or U-73343 (B). Changes in 340 nm/380 nm excitation ratio were monitored, and converted to [Ca^2+]i levels. Data are presented as means ±S. E. M. of three independent experiments.
(§1) Freshly prepared human neutrophils were incubated in serum free RPMI 1640 medium with 3 μM of fura-2/AM at 37° C. for 30 min with continuous stirring. After washing with serum free RPMI 1640 medium, the cells were suspended in serum free RPMI containing 250 μM of sulfinpyrazone to prevent dye leakage. About 2×10^6 cells were suspended in Ca^2+ free Locke's solution (158.4 mM NaCl, 5.6 mM KCl, 1.2 mM MgCl2, 5 mM HEPES pH 7.3, 10 mM glucose, and 0.2 mM EGTA) for each measurement. Changes in the fluorescence ratio were measured at an emission wavelength of 500 nm for dual excitation wavelengths at 340 nm and 380 nm. The calibration of the fluorescence ratio versus [Ca^2+]i was performed as described by Grynkiewicz (Grynkiewicz et al., 1985).

[2] = test system: PTX-sensitive Gi-proteins; experiment: PTX sensitivity of [Ca2+]i increase in neutrophils; format: cell-based, human; settings: fMLF 1 μM
Method: (§2) Isolated neutrophils were preincubated with PTX (1 μg/ml) or vehicle for 90 min at 37° C. and stimulated with m-3M3FBS, FMLF, or ATP at concentrations of 25, 1, and 500 μM, respectively. Changes in the excitation ratios at 340 nm/380 nm were monitored. Data are presented as means ±S. E. M. of two independent experiments (A). cAMP levels were determined by a radio receptor assay. Prepared cells were treated with m-3M3FBS (25 μM) or histamine (100 μM) and then lysed with Tris-EDTA. After removing the supernatant, [ 3H] cAMP and protein were added, and the amount of [^3H] cAMP-protein complex was determined. The amount of unlabeled cAMP (in the sample) was then calculated by measuring the protein-bound radioactivity. Data are presented as means ±S. E. M. of two independent experiments (B). RGS2-GFP inducible HeLa cells were cultured for 48 h in the absence or in the presence of tetracycline, and the induction of RGS2-GFP was confirmed by Western blot analysis using anti-GFP antibody (C). RGS2-GFP inducible HeLa cells were cultured for 48 h in the absence or in the presence of tetracycline and loaded with fura-2. Cells were treated with histamine (100 μM) or m-3M3FBS (25 μM), and changes in the 340 nm/380 nm ratios were monitored and converted to [Ca^2+]i values. The results shown are representative of three independent experiments (C).
as §1

[3] = test system: Gq-proteins; experiment: [Ca2+]i in RGS2-GFP inducible HeLa cells; format: cell-based, human; settings: histamine 100 μM, m-3M3FBS 25 μM
Method: as §2, with “RGS2-GFP inducible HeLa cells were cultured for 48 h in the absence or in the presence of tetracycline, and the induction of RGS2-GFP was confirmed by Western blot analysis using anti-GFP antibody (C).” left out
pRevTRE vector containing the cDNA of rat RGS2-GFP was transfected into Hela Tet-off cells using Lipofectamine. Selection was performed in DMEM supplemented with 2 μg/ml of tetracycline and 500 μg/ml of hygromycin B. Two weeks later, several well-isolated colonies were picked out and analyzed by western blotting to determine the expression level of RGS2 in the absence of tetracycline. For these experiments, HeLa cells were cultured for 48 h in the absence or in the presence of tetracycline.
as §1

[4] = test system: Gs-proteins; experiment: Cyclic AMP generation (radio receptor assay); format: cell-based; settings: human neutrophils; m-3M3FBS 25 μM, histamine 100 μM
Method: as §2, with “RGS2-GFP inducible HeLa cells were cultured for 48 h in the absence or in the presence of tetracycline, and the induction of RGS2-GFP was confirmed by Western blot analysis using anti-GFP antibody (C).” left out

## COc1ccc2c(c1)CC[C@@H]1[C@@H]2CC[C@]2(C)[C@@H](NCCCCCCN3C(=O)C=CC3=O)CC[C@@H]12 [U-73122, reference compound]
[1]; preincubation in the presence of extracellular calcium, data not shown
  effect on m-3M3FBS-induced calcium signal: completely blocked
[1]
  effect on calcium signal induced by m-3M3FBS: complete inhibition

## fMLF
[2]; PTX 1 μg/ml for 90 min, m-3M3FBS 25 μM
  effect of PTX preincubation on the induced calcium increase: inhibited
[2]; neutrophils, without PTX
  [Ca2+]i increase: induced [Ca^2+]i increase

## NCCc1c[nH]cn1 [histamine, reference compound]
[3]; HeLa cells in the presence of tetracycline (RGS2 not induced)
  [Ca2+]i increase: caused [Ca^2+]i increases
[3]; HeLa cells overexpressing RGS2
  effect of RGS2 induction on the induced calcium response: completely blocked
[4]
  intracellular cAMP level: potently induce cAMP production

## COc1ccc2c(c1)CC[C@@H]1[C@@H]2CC[C@]2(C)[C@@H](NCCCCCCN3C(=O)CCC3=O)CC[C@@H]12 [U-73343, reference compound]
[1]
  effect on calcium signal induced by m-3M3FBS: no effect
